pIC50: −log10 of the molar value.
How the values were obtained:
Format in all cases: cell-based
[1] = tested on: IL-6; test: IL-6 in LPS-induced PBMCs / CD14+ monocytes, Meso Scale assay
Description: (§1) FIG. 3 represents the activity against IL-6 in CD14, monocytes, plated in 96 well plates and pretreated with Compounds 1, 2, or 3, or pomalidomide, for 1 h and then induced with 100 ng/mL LPS for 18-24 h. Cytokines were measured according to MesoScale protocol. Negative control wells were treated with DMSO. Cells were treated with compound (at the indicated concentrations) or 10 μM pomalidomide. Compound activity was measured as a percentage of LPS-induced activity.
(§2) Either frozen primary blood mononuclear cells (PBMCs) or frozen CD14+ mobilized peripheral blood monocytes were purchased from AllCells (PB003F, Normal Peripheral Blood MNC (Alameda, Calif.)). Cells were quick thawed, washed 1-time with RPMI-1640 (10% FBS/1% Pen-Strep) and plated in 96 well plates at 200,000 cells per well. Cells were pretreated with DMSO only, pomalidomide or the indicated compounds for 1 h and then induced with 100 ng/mL lipopolysaccharide (LPS) for 18-24 h. The supernatant was analyzed for IL-1 beta, IL-6, and TNF-alpha, using Meso Scale assay according to manufacturer's protocol. The negative control wells were treated with DMSO.
(§3) Compound activity is measured as fold difference from the DMSO control. Compounds 1, 2, and 3 each reduced expression of IL-1-b in LPS-stimulated PBMCs by over 80% at 1 uM, relative to a just under 80% reduction with pomalidomide at 10 μM (FIG. 2).

[2] = target: T1, GSPT1 (Homo sapiens, UniProt P15170); test: Western blot analysis of GSPT1 protein levels in Jurkat cells; details: DMSO = 100.00; for GSPT1 protein level (% of DMSO control) at 0.1 µM: 100 nM compound; for GSPT1 protein level (% of DMSO control) at 1 µM: 1 uM compound
T1 construct: Whole cell extract was prepared with RIPA buffer according to manufacturer's protocol; endogenous in cells; host or cells: Jurkat cells
T1 sequence (P15170 whole entry): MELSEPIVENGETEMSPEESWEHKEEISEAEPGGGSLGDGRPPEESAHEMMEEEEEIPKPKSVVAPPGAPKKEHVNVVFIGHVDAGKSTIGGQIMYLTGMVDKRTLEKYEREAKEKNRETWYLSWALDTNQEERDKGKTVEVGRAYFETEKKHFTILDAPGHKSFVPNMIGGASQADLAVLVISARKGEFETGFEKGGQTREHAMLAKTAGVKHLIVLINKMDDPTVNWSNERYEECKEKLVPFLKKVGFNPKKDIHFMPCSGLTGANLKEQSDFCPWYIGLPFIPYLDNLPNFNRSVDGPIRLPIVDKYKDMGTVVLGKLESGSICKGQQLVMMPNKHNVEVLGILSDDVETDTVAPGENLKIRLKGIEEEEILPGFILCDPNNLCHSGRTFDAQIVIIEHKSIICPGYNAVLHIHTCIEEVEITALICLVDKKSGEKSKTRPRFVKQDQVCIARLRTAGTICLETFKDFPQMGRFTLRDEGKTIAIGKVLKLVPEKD
Description: FIG. 1 represents the activity against CK1α, ikaros, and GPST1 in Jurkat cells, plated in 96 well plates. Cells were pretreated with compounds for 4 h and then lysed and protein levels measure via Western blots. The negative control wells were treated with DMSO. Cells were treated with the indicated compound at the indicated concentration. Compound activity is measured as a decrease in GSPT1 protein levels.
Western Blot Protocol: Cell lines were grown in RPMI 1640 supplemented with streptomycin, penicillin and 10% fetal bovine serum.
Jurkat cells were cultured at approximately 10^6 cells per mL, DMSO or the indicated compound was added to the cells and allowed to incubate for 6-8 h. Whole cell extract was prepared with RIPA buffer according to manufacturer's protocol (Pierce (Dallas, Tex.)). Briefly, ˜2×10^6 cells were washed once in PBS, the cell pellet was resuspended in RIPA buffer and allowed to incubate for 15 min on ice. Cell debris was removed by centrifugation and the cleared whole cell lysate was transferred to a new tube for further analysis.
For western blot analysis, whole cell extracts were separated on 4-12% SDS-polyacrylamide gels, transferred to nitrocellulose and probed with the indicated primary antibodies. Membranes were subsequently washed and probed with the appropriate horseradish peroxidase (HRP)-conjugated secondary antibody. Membranes were subsequently washed and probed with the appropriate IRDye secondary antibodies (LI-COR). The signal was detected using the Odyssey Imaging System (LI-COR).

[3] = tested on: IL-2; test: IL-2 in PBMCs on anti-human CD3 (OKT3) coated plates, Mesoscale analysis; details: PBMC, 24 h, relative to DMSO control, read-out: Fold Change IL-2
Description: For the IL-2 analysis, 96 well plates were precoated with 1 μg/mL anti-human CD3 antibody (OKT3, eBioscience Inc., San Diego, Calif.). After washing with PBS, compounds were added (50 μL/well) followed by PBMCs diluted at 3-4 million cells/mL (150 μL/well). Plates were incubated for 24 h and the supernatants collected for Mesoscale IL-2 analysis.
as §3

[4] = tested on: TNF-α; test: TNF-alpha in LPS-induced PBMCs / CD14+ monocytes, Meso Scale assay
Description: as §1, with “FIG. 4” for “FIG. 3”, “against TNF-alpha” for “against IL-6”, “protocol. The negative” for “protocol. Negative”
as §2, §3

[5] = tested on: IL-1β; test: IL-1 beta in LPS-induced PBMCs / CD14+ monocytes, Meso Scale assay
Description: as §1, with “FIG. 2” for “FIG. 3”, “against IL-1-beta” for “against IL-6”, “in CD14” for “in CD14,”, “DMSO.” for “DMSO. Cells were treated with compound (at the indicated concentrations) or 10 μM pomalidomide.”
as §2, §3

[6] = tested on: H1048 cells; test: Cell viability assay (CellTiter-Glo), H1048 cells; details: Homo sapiens, NCI-H1048, 72 h, 3 days; for viability at 1 µM: H1048, 1 μM; for viability at 10 µM: H1048, 10 μM
Description: (§4) Molm-13 cells were cultivated in RPMI-1640 (10% FBS/1% pen-strep) and were plated in white walled 96-well plates at 20,000 cells/well. H1048 cells were cultured in DMEM:F12 media supplemented with 5% fetal bovine serum, insulin, transferrin, sodium selenite, hydrocortisone, estradiol, penicillin and streptomycin, and were plated in white walled 96-well plates at 20,000 cells/well.
(§5) Cells were treated with compound at the indicated concentration or DMSO (control) and the cultures were incubated for 3 days at 37° C. and 5% CO2. Following the incubation period, 100 μL of CellTiterGlow (CTG) reagent (CellTiter-Glo® Luminescent Cell Viability Assay, Promega (Madison, Wis.)) was added to each well. Following a 10 min incubation with shaking, luminescence was measured using a Victor Wallac Luminometer.

[7] = tested on: Molm-13 cells; test: Cell viability assay (CellTiter-Glo), Molm-13 cells; details: for viability at 10 µM: MOLM-13, 10 μM; for viability at 1 µM: MOLM-13, 1 μM
Description: FIG. 5 represents antiproliferative activity in Molm-13 cells. The cells were incubated with Compound 1, 2, or 3 (at the indicated concentration), DMSO, or pomalidomide. Compound activity was measured based on the signal from remaining viable cells.
as §4, §5

| Compound | inhibition at 0.1 µM [1] [%] | GSPT1 protein level (% of DMSO control) at 0.1 µM [2] [%] | GSPT1 protein level (% of DMSO control) at 1 µM [2] [%] | fold induction at 0.1 µM [3] | inhibition at 0.1 µM [4] [%] | inhibition at 0.1 µM [5] [%] | viability at 1 µM [6] [%] | viability at 10 µM [6] [%] | viability at 0.4 µM ([7]; Homo sapiens, 72 h, MOLM-13, 0.4 μM, 3 days) [%] | pIC50 ([7]; Homo sapiens, Molm-13 cells, approximate) | effect on cell viability ([7]; Molm-13 cells, 1 μM (FIG. 5)) | viability at 10 µM ([7]; Homo sapiens, 72 h, 3 days) [%] | inhibition at 1 µM [1] [%] | fold induction at 1 µM [3] | inhibition at 1 µM [4] [%] | inhibition at 1 µM [5] [%] | viability at 1 µM ([7]; Homo sapiens, 72 h, 3 days) [%] | viability at 0.5 µM ([7]; Homo sapiens, 72 h, MOLM-13, 0.5 μM, 3 days) [%] |
| --- | --- | --- | --- | --- | --- | --- | --- | --- | --- | --- | --- | --- | --- | --- | --- | --- | --- | --- |
| Cc1ccc(NC(=O)NCc2ccc3c(c2)CN(C2CCCC(=O)NC2=O)C3=O)cc1 (stereo not shown) [Compound 2] | 51 | 134 | 23 | 1.4 | 79 | 78 | 28.3 | 4.93 | 50 | ~6.10 | reduced cell viability |  |  |  |  |  |  |  |
| Cc1ccc(NC(=O)NCCc2cccc3c2CN([C@H]2CCCC(=O)NC2=O)C3=O)cc1Cl [Compound 23, (S)-1-(3-chloro-4-methylphenyl)-3-(2-(2-(2,7-dioxoazepan-3-yl)-1-oxoisoindolin-4-yl)ethyl)urea] | 0 | 147 | 105 | 0.8 | 25 | 21 |  | 25.1 |  |  |  | 96 |  |  |  |  |  |  |
| O=C(Cc1ccc(C(F)(F)F)c(Cl)c1)NCc1ccc2c(c1)CN([C@H]1CCCC(=O)NC1=O)C2=O [Compound 10, (S)-2-(3-chloro-4-(trifluoromethyl)phenyl)-N-((2-(2,7-dioxoazepan-3-yl)-1-oxoisoindolin-5-yl)methyl)acetamide] |  | 83.3 | 49.3 |  |  |  | 82.1 | 21.5 |  |  |  | 96 | 67 | 1.5 | 67 | 68 |  |  |
| Cc1ccc(NC(=O)NCc2cccc3c2CN([C@H]2CCCC(=O)NC2=O)C3=O)cc1Cl [Compound 17, (S)-1-(3-chloro-4-methylphenyl)-3-((2-(2,7-dioxoazepan-3-yl)-1-oxoisoindolin-4-yl)methyl)urea] | 0 | 131 | 80.5 | 1.3 | 18 | 19 | 95.5 | 34.9 |  |  |  | 91 |  |  |  |  |  |  |
| Cc1ccc(CC(=O)NCc2ccc3c(c2)CN([C@H]2CCCC(=O)NC2=O)C3=O)cc1Cl [Compound 7, (S)-2-(3-chloro-4-methylphenyl)-N-((2-(2,7-dioxoazepan-3-yl)-1-oxoisoindolin-5-yl)methyl)acetamide] |  | 83.3 | 18.5 |  |  |  | 44.1 | 7.25 |  |  |  |  | 73 | 1 | 59 | 56 | 70 |  |
| Cc1ccc(NC(=O)NCc2cc3c(cc2F)C(=O)N([C@H]2CCCC(=O)NC2=O)C3)cc1Cl [Compound 22, (S)-1-(3-chloro-4-methylphenyl)-3-((2-(2,7-dioxoazepan-3-yl)-6-fluoro-1-oxoisoindolin-5-yl)methyl)urea] | 58 | 22.1 | 5.56 | 2 | 74 | 82 | 11.5 | 4.04 |  |  |  |  |  |  |  |  | 2.45 |  |
| COc1ccc(NC(=O)NCc2ccc3c(c2)CN([C@H]2CCCC(=O)NC2=O)C3=O)cc1Cl [Compound 8, (S)-1-(3-chloro-4-methoxyphenyl)-3-((2-(2,7-dioxoazepan-3-yl)-1-oxoisoindolin-5-yl)methyl)urea] |  | 52.6 | 14.9 |  |  |  | 17.4 | 4.4 |  |  |  |  | 95 | 0.9 | 84 | 78 |  | 48 |

Source: patent US10857155B2, “Compounds targeting proteins, compositions, methods, and uses thereof” (BioTheryX, Inc., priority 2017, dated 2020)
